Legend:
Format in all cases: in vivo
[1] = test system: VIOTR: wild violet (Viola tricolor); assay: Post-emergent herbicidal test, wild violet; settings: post-emergence, 336 h, 14 days after application, read-out: Visual Growth Reduction (%) 14 Days After Application VIOTR
How it was run: (§1)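 Plants are raised in potting mix of pH 6.0 to 6.8 in a greenhouse until the first or second true leaf, then sprayed with formulated compound at 187 L/ha at several rates (½× to 1/16× of the top rate). After 14 d, damage is rated visually as percent injury against untreated plants.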

[2] = test system: BRSNN: oilseed rape, canola (Brassica napus); assay: Post-emergent herbicidal test, oilseed rape; settings: post-emergence, 336 h, 14 days after application, read-out: Visual Growth Reduction (%) 14 Days After Application BRSNN
How it was run: as §1

[3] = test system: EPHHL: wild poinsettia (Euphorbia heterophylla); assay: Post-emergent herbicidal test, wild poinsettia; settings: post-emergence, 336 h, 14 days after application, read-out: Visual Growth Reduction (%) 14 Days After Application EPHHL
How it was run: as §1

[4] = test system: DIGSA: large crabgrass (Digitaria sanguinalis); assay: Post-emergent herbicidal test, large crabgrass; settings: post-emergence, 336 h, 14 days after application, read-out: Visual Growth Reduction (%) 14 Days After Application DIGSA
How it was run: as §1

[5] = test system: SORVU: shattercane (Sorghum bicolor); assay: Post-emergent herbicidal test, shattercane; settings: post-emergence, 336 h, 14 days after application, read-out: Visual Growth Reduction (%) 14 Days After Application SORVU
How it was run: as §1

[6] = test system: CIRAR: Canada thistle (Cirsium arvense); assay: Post-emergent herbicidal test, Canada thistle; settings: post-emergence, 336 h, 14 days after application, read-out: Visual Growth Reduction (%) 14 Days After Application CIRAR
How it was run: as §1

[7] = test system: SETFA: giant foxtail (Setaria faberi); assay: Post-emergent herbicidal test, giant foxtail; settings: post-emergence, 336 h, 14 days after application, read-out: Visual Growth Reduction (%) 14 Days After Application SETFA
How it was run: as §1

[8] = test system: ECHCG: barnyardgrass (Echinochloa crus-galli); assay: Post-emergent herbicidal test, barnyardgrass; settings: post-emergence, 336 h, 14 days after application, read-out: Visual Growth Reduction (%) 14 Days After Application ECHCG
How it was run: as §1

[9] = test system: CYPES: yellow nutsedge (Cyperus esculentus); assay: Post-emergent herbicidal test, yellow nutsedge; settings: post-emergence, 336 h, 14 days after application, read-out: Visual Growth Reduction (%) 14 Days After Application CYPES
How it was run: as §1

[10] = test system: ABUTH: velvetleaf (Abutilon theophrasti); assay: Post-emergent herbicidal test, velvetleaf; settings: post-emergence, 336 h, 14 days after application, read-out: Visual Growth Reduction (%) 14 Days After Application ABUTH
How it was run: as §1

[11] = test system: IPOHE: ivyleaf morningglory (Ipomoea hederacea); assay: Post-emergent herbicidal test, ivyleaf morningglory; settings: post-emergence, 336 h, 14 days after application, read-out: Visual Growth Reduction (%) 14 Days After Application IPOHE
How it was run: as §1

Structure (SMILES): Nc1c(F)c(-c2ccc(I)c3c2OC(F)(F)O3)nc(C(=O)O)c1Cl [Compound 12]
- pest or weed control at 17.5 g/ha ([1]; 17.5 g ai/ha): 0%
- pest or weed control at 35 g/ha ([1]; 35 g ai/ha): 0%
- pest or weed control at 70 g/ha ([1]; 70 g ai/ha): 0%
- pest or weed control at 140 g/ha ([1]; 140 g ai/ha): 0%
- pest or weed control at 17.5 g/ha ([2]; 17.5 g ai/ha): 70%
- pest or weed control at 35 g/ha ([2]; 35 g ai/ha): 80%
- pest or weed control at 70 g/ha ([2]; 70 g ai/ha): 90%
- pest or weed control at 140 g/ha ([2]; 140 g ai/ha): 100%
- pest or weed control at 17.5 g/ha ([3]; 17.5 g ai/ha): 0%
- pest or weed control at 35 g/ha ([3]; 35 g ai/ha): 0%
- pest or weed control at 70 g/ha ([3]; 70 g ai/ha): 0%
- pest or weed control at 140 g/ha ([3]; 140 g ai/ha): 0%
- pest or weed control at 17.5 g/ha ([4]; 17.5 g ai/ha): 0%
- pest or weed control at 35 g/ha ([4]; 35 g ai/ha): 0%
- pest or weed control at 70 g/ha ([4]; 70 g ai/ha): 0%
- pest or weed control at 140 g/ha ([4]; 140 g ai/ha): 0%
- pest or weed control at 17.5 g/ha ([5]; 17.5 g ai/ha): 0%
- pest or weed control at 35 g/ha ([5]; 35 g ai/ha): 0%
- pest or weed control at 70 g/ha ([5]; 70 g ai/ha): 0%
- pest or weed control at 140 g/ha ([5]; 140 g ai/ha): 0%
- pest or weed control at 17.5 g/ha ([6]; 17.5 g ai/ha): 65%
- pest or weed control at 35 g/ha ([6]; 35 g ai/ha): 80%
- pest or weed control at 70 g/ha ([6]; 70 g ai/ha): 85%
- pest or weed control at 140 g/ha ([6]; 140 g ai/ha): 85%
- pest or weed control at 17.5 g/ha ([7]; 17.5 g ai/ha): 0%
- pest or weed control at 35 g/ha ([7]; 35 g ai/ha): 0%
- pest or weed control at 70 g/ha ([7]; 70 g ai/ha): 0%
- pest or weed control at 140 g/ha ([7]; 140 g ai/ha): 0%
- pest or weed control at 17.5 g/ha ([8]; 17.5 g ai/ha): 0%
- pest or weed control at 35 g/ha ([8]; 35 g ai/ha): 0%
- pest or weed control at 70 g/ha ([8]; 70 g ai/ha): 0%
- pest or weed control at 140 g/ha ([8]; 140 g ai/ha): 0%
- pest or weed control at 17.5 g/ha ([9]; 17.5 g ai/ha): 0%
- pest or weed control at 35 g/ha ([9]; 35 g ai/ha): 0%
- pest or weed control at 70 g/ha ([9]; 70 g ai/ha): 0%
- pest or weed control at 140 g/ha ([9]; 140 g ai/ha): 0%
- pest or weed control at 17.5 g/ha ([10]; 17.5 g ai/ha): 0%
- pest or weed control at 35 g/ha ([10]; 35 g ai/ha): 0%
- pest or weed control at 70 g/ha ([10]; 70 g ai/ha): 70%
- pest or weed control at 140 g/ha ([10]; 140 g ai/ha): 80%
- pest or weed control at 17.5 g/ha ([11]; 17.5 g ai/ha): 0%
- pest or weed control at 35 g/ha ([11]; 35 g ai/ha): 0%
- pest or weed control at 70 g/ha ([11]; 70 g ai/ha): 0%
- pest or weed control at 140 g/ha ([11]; 140 g ai/ha): 0%

From patent publication US11718604B2, “4-amino-6-(1,3-benzodioxole)picolinates and their use as herbicides” (Dow AgroSciences LLC, priority 2018, dated 2023)
